What was measured:
[1] = tested on: C6 (rat glioma cell line); assay: MTT cytotoxicity assay, C6; format: cell-based; details: Rattus norvegicus, read-out: IC50 against C6
Procedure: (§1) The anticancer activity of compounds 5a–5o were screened according to the MTT assays. The MTT assays were performed as previously described[32]^,[33]. Anticancer activity of final compounds was assessed against five different cancer cell lines A549 (lung carcinoma cell line), HeLa (cervical cell line), MCF-7 (human breast adenocarcinoma cell line), HepG2 (human liver carcinoma cell line) and C6 (rat glioma cell line) cell lines as well as NIH3T3 (mouse embryo fibroblast cell line). Doxorubicin and Hoechst 33342 were used as the reference drugs in the MTT assays.
(§2) The benzimidazole-1,3,4-oxadiazole derivatives (5a-5o) were tested their cytotoxic effects in vitro using five cancer cell line A549 (lung carcinoma cell line), HeLa (cervical cell line), MCF-7 (human breast adenocarcinoma cell line), HepG2 (human liver carcinoma cell line) and C6 (rat glioma cell line) cell lines as well as NIH3T3 (mouse embryo fibroblast cell line). Doxorubicin and Hoechst 33342 were used for this study as a reference drugs.

[2] = tested on: A549 (lung carcinoma cell line); assay: MTT cytotoxicity assay, A549; format: cell-based; details: Homo sapiens, A549, MTT assay, read-out: IC50 against A549
Procedure: as §1, §2

[3] = tested on: HeLa (cervical cell line); assay: MTT cytotoxicity assay, HeLa; format: cell-based; details: Homo sapiens, read-out: IC50 against HeLa
Procedure: as §1, §2

[4] = tested on: MCF-7 (human breast adenocarcinoma cell line); assay: MTT cytotoxicity assay, MCF-7; format: cell-based; details: Homo sapiens, MCF7, MCF-7 cell line, read-out: IC50 against MCF-7
Procedure: as §1, §2

[5] = tested on: HepG2 (human liver carcinoma cell line); assay: MTT cytotoxicity assay, HepG2; format: cell-based; details: Homo sapiens, read-out: IC50 against HepG2
Procedure: as §1, §2

[6] = tested on: NIH3T3 (mouse embryo fibroblast cell line); assay: MTT cytotoxicity assay, NIH3T3 healthy cells; format: cell-based; details: Mus musculus, read-out: IC50 against NIH3T3
Procedure: The anticancer activity of compounds 5a–5o were screened according to the MTT assays. The MTT assays were performed as previously described[32]^,[33]. Anticancer activity of final compounds was assessed against five different cancer cell lines A549 (lung carcinoma cell line), HeLa (cervical cell line), MCF-7 (human breast adenocarcinoma cell line), HepG2 (human liver carcinoma cell line) and C6 (rat glioma cell line) cell lines as well as NIH3T3 (mouse embryo fibroblast cell line). Doxorubicin and Hoechst 33342 were used as the reference drugs in the MTT assays. It is crucial that an anticancer agent affects the cancer cell line but having minimal or no side-effect on healthy cells. For this purpose, the cytotoxic effects of the active compounds on the NIH3T3 cell line were investigated (Table 2).

[7] = target: T1, Topoisomerase I (Homo sapiens, UniProt P11387); assay: DNA topoisomerase I assay (relaxation of supercoiled plasmid DNA, agarose gel); format: biochemical; details: agarose gel electrophoresis, camptothecin positive control, Figure 12
T1 construct: purchased TopoGen TG1018-2
T1 sequence (P11387 1-765): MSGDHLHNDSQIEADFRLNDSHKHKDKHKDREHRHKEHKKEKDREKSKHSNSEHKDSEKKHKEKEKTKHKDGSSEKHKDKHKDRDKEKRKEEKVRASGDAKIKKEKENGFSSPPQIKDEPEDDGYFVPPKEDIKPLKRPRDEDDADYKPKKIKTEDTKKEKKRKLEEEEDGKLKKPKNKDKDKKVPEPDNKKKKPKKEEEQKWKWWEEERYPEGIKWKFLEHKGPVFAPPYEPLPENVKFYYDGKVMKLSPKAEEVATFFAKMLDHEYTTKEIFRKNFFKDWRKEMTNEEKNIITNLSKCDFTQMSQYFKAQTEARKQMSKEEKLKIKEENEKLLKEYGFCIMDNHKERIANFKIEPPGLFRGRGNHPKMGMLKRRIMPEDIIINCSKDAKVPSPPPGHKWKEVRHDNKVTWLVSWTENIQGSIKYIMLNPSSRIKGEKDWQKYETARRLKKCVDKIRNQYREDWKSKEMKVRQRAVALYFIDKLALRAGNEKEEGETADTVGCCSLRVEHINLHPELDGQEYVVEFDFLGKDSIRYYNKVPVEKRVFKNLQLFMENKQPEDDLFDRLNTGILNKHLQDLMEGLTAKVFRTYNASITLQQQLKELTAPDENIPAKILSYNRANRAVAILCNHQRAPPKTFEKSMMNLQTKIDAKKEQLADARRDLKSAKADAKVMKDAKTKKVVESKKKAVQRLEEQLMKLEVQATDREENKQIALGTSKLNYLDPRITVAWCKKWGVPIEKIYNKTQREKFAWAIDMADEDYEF
Procedure: The topoisomerase I inhibition activities of final compounds were measured as relaxation of supercoiled plasmid DNA using agarose gel electrophoresis and camptothecin was used as a positive control. The assay was carried out in a final volume of 20 µl reaction volume containing 2 µl of 10xTGS Buffer, 6 µl water, 2 µl supercoiled plasmid DNA, 2 µl test compound, 2 µl of Top1, 2 ul 10% SDS, 2 µl proteinase K, 2 µl DNA loading dye. After incubation of reaction mixtures at 37 °C for 30 min, electrophoresis was done on a 1% agarose gel at a potential 50 V for 75 min using 1xTAE buffer.
To determine whether the DNA intercalation properties of compounds 5a, 5b, 5d, 5e, 5k, 5l, 5n and 5o might result in Topo I inhibition, agarose gel electrophores is assay was performed to evaluate the Topo I inhibitory activity of them via agarose-gel electrophoresis and CPT was used as the positive control. The TopoGEN Topoisomerase I Drug Screening Kit were optimised and implemented to accomplish this goal.
In a previous studies, it was said that the compounds poisoning topoisomerase caused the formation of nick bands in such gel appearances, while the formation of Supercoiled bands was said to be caused by catalytic inhibitors that bound to either DNA or enzyme[40]^,[41].

[8] = tested on: MCF-7 cell line; assay: Flow cytometric analysis (Annexin V/PI), MCF-7; format: cell-based, human; details: MCF-7 cells
Procedure: Death pathway of the carcinogenic cell lines was detected by Annexin V-FITC Apoptosis Detection Kit (BD, Pharmingen) as reported previously described. […] FCS Express software was used to display the percent of normal and apoptotic cells at different stages. […] The experiments were carried out in triplicates.
Annexin V/PI staining on tested cancer cells treated with the active compounds was performed to investigate induction of apoptosis. […] According to the MTT assay, compound 5n for A549 cell line; compounds 5a, 5d, 5e, 5o for MCF-7 cell line; compound 5k for C6 cell line; compound 5a for HepG2 cell line; compounds 5b, 5l and 5n for HeLa cell line were selected for the flow cytometric analysis. Furthermore, flow cytometry studies were performed for reference drug doxorubicin. Flow cytometric analysis diagrams of tested compounds and doxorubicin at IC50/2, IC50, and 2xIC50 concentrations on cancer cells were presented in Figures 7–11.

| Compound | melting point [°C] | Topo I inhibition activity [7] | IC50 [1] [µM] | IC50 [2] [µM] | IC50 [3] [µM] | IC50 [4] [µM] | IC50 [5] [µM] | IC50 [6] [µM] | percentage of apoptosis (early + late apoptotic cells) [8] [%] |
| --- | --- | --- | --- | --- | --- | --- | --- | --- | --- |
| O=C(CSc1nnc(-c2ccc3nc(-c4ccc(O)cc4)[nH]c3c2)o1)N1CCN(c2ccccc2)CC1 [5c, 2-((5–(2-(4-Hydroxyphenyl)-1H-benzo[d]imidazol-6-yl)-1,3,4-oxadiazol-2-yl)thio)-1–(4-(phenyl) -piperazin-1-yl) -ethane-1-on] | 271.1 to 273.4 |  | ≥ 100 | ≥ 100 | 20.3 ± 1.1 | ≥ 100 | 21.9 ± 0.991 | 44.56 ± 0.221 |  |
| CCOc1ccc(-c2nc3ccc(-c4nnc(SCC(=O)N5CCN(c6ncccn6)CC5)o4)cc3[nH]2)cc1 [5o, 2-((5-(2-(4-Ethoxyphenyl)-1H-benzo[d]imidazol-6-yl)-1,3,4-oxadiazol-2-yl)thio)-1–(4-(pyrimidine-2-yl)-piperazin-1-yl)-ethane-1-on] |  | potent topo I inhibition activity | 25 ± 1.24 |  | ≥ 100 | 6.44 ± 0.287 | 59.4 ± 2.59 | 44.1 ± 2.1 | 8.7 |
| CCOc1ccc(-c2nc3ccc(-c4nc5cc(N6CCN(C)CC6)ccc5[nH]4)cc3[nH]2)cc1 [Hoechst 33342, reference compound] |  |  |  |  | 0.306 ± 0.015 | 2.4 ± 0.118 | 27.8 ± 1.19 | 7.39 ± 0.269 |  |
| O=C(CSc1nnc(-c2ccc3nc(-c4ccc(O)cc4)[nH]c3c2)o1)N1CCN(c2ccccn2)CC1 [5d, 2-((5-(2-(4-Hydroxyphenyl)-1H-benzo[d]imidazol-6-yl)-1,3,4-oxadiazol-2-yl)thio)-1-(4-(pyridin-2-yl)-piperazin-1-yl)-ethane-1-on] |  | potent topo I inhibition activity | 38.9 ± 1.92 |  | ≥ 100 | 9.15 ± 0.391 | ≥ 100 | 720.6 ± 5.03 | 22.3 |
| CCOc1ccc(-c2nc3ccc(-c4nnc(SCC(=O)N5CCN(c6ccccc6)CC5)o4)cc3[nH]2)cc1 [5m, 2-((5-(2-(4-Ethoxyphenyl)-1H-benzo [d]imidazol-6-yl)-1,3,4-oxadiazol-2-yl)thio)-1–(4-(phenyl)-piperazin-1-yl)-ethane-1-on] | 262.5 to 263.9 |  | 32.2 ± 1.55 | ≥ 100 | ≥ 100 | ≥ 100 | ≥ 100 | 52.3 ± 2.51 |  |

Second part, led by results:

| melting point [°C] | Topo I inhibition activity [7] | Compound | IC50 [1] [µM] | IC50 [2] [µM] | IC50 [3] [µM] | IC50 [4] [µM] | IC50 [5] [µM] | IC50 [6] [µM] | percentage of apoptosis (early + late apoptotic cells) [8] [%] |
| --- | --- | --- | --- | --- | --- | --- | --- | --- | --- |
| 156.6 to 158.7 |  | COc1ccc(-c2nc3ccc(-c4nnc(SCC(=O)N5CCN(C)CC5)o4)cc3[nH]2)cc1 [5f, 2-((5-(2-(4-Methoxyphenyl)-1H-benzo[d]imidazol-6-yl)-1,3,4-oxadiazol-2-yl)thio)-1–(4-methyl-piperazin-1-yl)-ethane-1-on] | ≥ 100 | ≥ 100 | ≥ 100 | ≥ 100 | ≥ 100 |  |  |
| 166.7 to 169.2 |  | COc1ccc(-c2nc3ccc(-c4nnc(SCC(=O)N5CCN(c6ccccc6)CC5)o4)cc3[nH]2)cc1 [5h, 2-((5-(2-(4-Methoxyphenyl)-1H-benzo[d]imidazol-6-yl)-1,3,4-oxadiazol-2-yl)thio)-1–(4-(phenyl)-piperazin-1-yl)-ethane-1-on] | ≥ 100 | ≥ 100 | ≥ 100 | ≥ 100 | ≥ 100 |  |  |
| 118.7 to 120.3 |  | COc1ccc(-c2nc3ccc(-c4nnc(SCC(=O)N5CCN(c6ncccn6)CC5)o4)cc3[nH]2)cc1 [5j, 2-((5-(2-(4-Methoxyphenyl)-1H-benzo[d]imidazol-6-yl)-1,3,4-oxadiazol-2-yl)thio)-1–(4-(pyrimidin-2-yl)-piperazin-1-yl)-ethane-1-on] | ≥ 100 | ≥ 100 | ≥ 100 | ≥ 100 | ≥ 100 |  |  |
| 168.3 to 170.1 |  | COc1ccc(-c2nc3ccc(-c4nnc(SCC(=O)N5CCN(c6ccccn6)CC5)o4)cc3[nH]2)cc1 [5ı, 2-((5-(2-(4-Methoxyphenyl)-1H-benzo[d]imidazol-6-yl)-1,3,4-oxadiazol-2-yl)thio)-1–(4-(pyridin-2-yl)-piperazin-1-yl)-ethane-1-on] | ≥ 100 | ≥ 100 | ≥ 100 | ≥ 100 | ≥ 100 |  |  |
| 180.4 to 181.9 |  | CCN1CCN(C(=O)CSc2nnc(-c3ccc4nc(-c5ccc(OC)cc5)[nH]c4c3)o2)CC1 [5g, 2-((5-(2-(4-Methoxyphenyl)-1H-benzo[d]imidazol-6-yl)-1,3,4-oxadiazol-2-yl)thio)-1–(4-ethyl-piperazin-1-yl)-ethane-1-on] | ≥ 100 | ≥ 100 | ≥ 100 | ≥ 100 | ≥ 100 |  |  |

Source: PMC7470102, “Synthesis, anticancer evaluation and molecular docking studies of new benzimidazole- 1,3,4-oxadiazole derivatives as human topoisomerase types I poison” (Journal of Enzyme Inhibition and Medicinal Chemistry, 2020)
